Measured values published in the supplement of paper PMC8882468.

What was measured:
Test in all cases: CTG-3D luminescence at 96 h relative to day-0 seeding control (ratio to day 0); higher = more growth / less cytotoxicity; PDxO 3D drug screen (set 2), 96 h, CTG-3D normalised to day-0 seeding control.
HCI-008 = tested on: HCI-008 (organoid from a HER2-enriched breast cancer xenograft)
HCI-012 = tested on: HCI-012 (organoid from a breast cancer xenograft)
HCI-023 = tested on: HCI-023 (organoid from a triple-negative breast cancer xenograft)
MDA-MB-231 = tested on: MDA-MB-231
HCI-019 = tested on: HCI-019 (organoid from a triple-negative breast cancer xenograft)

Nc1cc(C(F)(F)F)c(-c2cc(N3CCOCC3)nc(N3CCOCC3)n2)cn1 [buparlisib]
CTG-3D luminescence at 96 h
Details	12.5 pM	0.00025 µM	0.005 µM	0.1 µM	1 µM	10 µM	100 µM	625 fM
HCI-008, days in culture: 325	0.757	2.89	2.4	2.51	1.17	0.647	0.313	1.94
HCI-008, days in culture: 340	0.632	2.38	1.94	1.55	1.56	–	0.305	1.04
HCI-008, days in culture: 354	0.796	1.19	2.59	1.46	0.578	0.294	0.327	1.16
HCI-008, days in culture: 382	1.52	1.82	1.45	1.71	0.652	0.363	0.104	1.9
HCI-012, days in culture: 214	1.75	3.34	1.48	2.51	1.02	0.314	0.0491	2.11
HCI-012, days in culture: 243	1.8	2.97	2.35	2.4	1.59	0.242	0.0324	2.37
HCI-012, days in culture: 256	2.19	2.45	2.12	2.99	1.05	0.138	0.0266	1.97
HCI-012, days in culture: 284	1.86	2.37	1.96	2.4	1.3	0.282	0.0339	3.54
HCI-019, days in culture: 173	2.34	1.59	2.11	1.58	1.45	0.425	0.353	1.61
HCI-019, days in culture: 194	1.92	1.72	2.05	2.27	0.78	0.454	0.358	3.95
HCI-019, days in culture: 215	1.75	1.27	1.46	1.85	0.763	0.382	0.188	1.2
HCI-023, days in culture: 223	2.1	2.58	1.97	2.26	0.929	0.895	1.04	2.64
HCI-023, days in culture: 238	1.41	1.77	1.57	1.4	1.23	0.672	0.628	1.46
HCI-023, days in culture: 252	2.06	2.07	1.65	2.23	1.58	0.8	0.794	2.06

MDA-MB-231
Details	CTG-3D luminescence at 96 h
12.5 pM	5.18
0.00025 µM	5.23
0.005 µM	5.28
0.1 µM	5.17
1 µM	4.45
10 µM	2.28
100 µM	2.15
625 fM	5.31
